Experimental data as given in patent publication US7138361B2, “Herbicidal heterocycles” (E. I. du Pont de Nemours and Company, priority 2000, dated 2006).

Experiments:
Assay type in all cases: in vivo
[1] = system: crabgrass (Digitaria sanguinalis); assay: Test B postemergence; settings: 13 to 15 days
Procedure, shortened: (§1)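 Ratings on a 0 to 100 visual scale (100 complete control) compare treated plants with controls 13 to 15 days after application. Treatments were pre- or postemergence sprays of compound in non-phytotoxic solvent with surfactant.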

[2] = system: velvetleaf (Abutilon theophrasti); assay: Test B postemergence; settings: 13 to 15 days
Procedure, shortened: as §1

[3] = system: blackgrass (Alopecurus myosuroides); assay: Test B postemergence; settings: 13 to 15 days
Procedure, shortened: as §1

[4] = system: barnyardgrass (Echinochloa crus-galli); assay: Test B postemergence; settings: 13 to 15 days
Procedure, shortened: as §1

[5] = system: morning glory (Ipomoea hederacea); assay: Test B postemergence; settings: 13 to 15 days
Procedure, shortened: as §1

corn (Zea mays) [6] = assay: Test B postemergence; settings: 13 to 15 days
Procedure, shortened: as §1

wild oat (Avena fatua) = assay: Test B postemergence; settings: 13 to 15 days
Procedure, shortened: as §1

[7] = system: giant foxtail (Setaria faberii); assay: Test B postemergence; settings: 13 to 15 days
Procedure, shortened: as §1

[8] = system: wheat (Triticum aestivum); assay: Test B postemergence; settings: 13 to 15 days
Procedure, shortened: as §1

[9] = system: Surinam grass (Brachiaria decumbens); assay: Test B postemergence; settings: 13 to 15 days
Procedure, shortened: as §1

[10] = system: pigweed (Amaranthus retroflexus); assay: Test B postemergence; settings: 13 to 15 days
Procedure, shortened: as §1

[11] = system: lambsquarters (Chenopodium album); assay: Test B postemergence; settings: 13 to 15 days
Procedure, shortened: as §1

[12] = system: cocklebur (Xanthium strumarium); assay: Test B postemergence; settings: 13 to 15 days
Procedure, shortened: as §1

[13] = system: crabgrass (Digitaria sanguinalis); assay: Test B preemergence
Procedure, shortened: as §1

[14] = system: velvetleaf (Abutilon theophrasti); assay: Test B preemergence
Procedure, shortened: as §1

[15] = system: barnyardgrass (Echinochloa crus-galli); assay: Test B preemergence
Procedure, shortened: as §1

[16] = system: morning glory (Ipomoea hederacea); assay: Test B preemergence
Procedure, shortened: as §1

corn (Zea mays) [17] = assay: Test B preemergence
Procedure, shortened: as §1

[18] = system: giant foxtail (Setaria faberii); assay: Test B preemergence
Procedure, shortened: as §1

[19] = system: Surinam grass (Brachiaria decumbens); assay: Test B preemergence
Procedure, shortened: as §1

[20] = system: pigweed (Amaranthus retroflexus); assay: Test B preemergence
Procedure, shortened: as §1

[21] = system: lambsquarters (Chenopodium album); assay: Test B preemergence
Procedure, shortened: as §1

[22] = system: cocklebur (Xanthium strumarium); assay: Test B preemergence
Procedure, shortened: as §1

rice (Oryza saliva) [23] = assay: Test B preemergence
Procedure, shortened: as §1

[24] = system: barnyardgrass (Echinochloa crus-galli); assay: Test C flooded paddy test; settings: for Barnyardgrass plant response rating: Flooded Paddy, scale 0 to 100, 0 no effect, 100 complete control; for Plant response rating, Barnyardgrass: flooded paddy test, scale 0 to 100 (0 no effect, 100 complete control)
Procedure, shortened: (§2)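 Response on a 0-to-100 scale (no effect to complete control) was assessed by eye versus controls. Plants had reached 2 leaves when treated in flooded paddy conditions. The assessment took place after 12–14 days of greenhouse growth.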

[25] = system: smallflower flatsedge (Cyperus difformis); assay: Test C flooded paddy test; settings: for Flatsedge plant response rating: Flooded Paddy, scale 0 to 100, 0 no effect, 100 complete control; for Plant response rating, Flatsedge: flooded paddy test, scale 0 to 100 (0 no effect, 100 complete control)
Procedure, shortened: as §2

[26] = system: duck salad (Heteranthera limosa); assay: Test C flooded paddy test; settings: for Ducksalad plant response rating: Flooded Paddy, scale 0 to 100, 0 no effect, 100 complete control; for Plant response rating, Ducksalad: flooded paddy test, scale 0 to 100 (0 no effect, 100 complete control)
Procedure, shortened: as §2

rice (Oryza saliva) [27] = assay: Test C flooded paddy test; settings: for Rice plant response rating: Flooded Paddy, scale 0 to 100, 0 no effect, 100 complete control; for Plant response rating, Rice: flooded paddy test, scale 0 to 100 (0 no effect, 100 complete control)
Procedure, shortened: as §2

[28] = Rate 125 g/ha, scale 0 (no effect) to 100 (complete control)
[29] = Rate 500 g/ha, scale 0 to 100, 0 is no effect, 100 is complete control
[30] = Preemergence, Rate 500 g/ha, scale 0 to 100, 0 no effect, 100 complete control
[31] = preemergence, Rate 125 g/ha, scale of 0 to 100 where 0 is no effect and 100 is complete control, 13 to 15 days

Cc1cc(N2CCC(n3ccc(C(C)(C)C)n3)C2=O)cc(Br)c1C (stereo not shown) [Compound 77]
Plant response rating, Crabgrass [1, 28]: 0
Plant response rating, Crabgrass [1, 29]: 0
Plant response rating, Velvetleaf [2, 28]: 0
Plant response rating, Velvetleaf [2, 29]: 0
Plant response rating, Blackgrass [3, 28]: 0
Plant response rating, Blackgrass [3, 29]: 0
Plant response rating, Barnyardgrass [4, 28]: 0
Plant response rating, Barnyardgrass [4, 29]: 0
Plant response rating, Morningglory [5, 28]: 0
Plant response rating, Morningglory [5, 29]: 0
Plant response rating, Corn (corn (Zea mays) [6]; [28]): 0
Plant response rating, Corn (corn (Zea mays) [6]; [29]): 0
Plant response rating, Wild Oat (wild oat (Avena fatua); [28]): 0
Plant response rating, Wild Oat (wild oat (Avena fatua); [29]): 0
Plant response rating, Foxtail, Giant [7, 28]: 0
Plant response rating, Foxtail, Giant [7, 29]: 0
Plant response rating, Wheat [8, 28]: 0
Plant response rating, Wheat [8, 29]: 0
Plant response rating, Surinam grass [9, 28]: 0
Plant response rating, Surinam grass [9, 29]: 0
Plant response rating, Pigweed [10, 28]: 70
Plant response rating, Pigweed [10, 29]: 80
Plant response rating, Lambsquarters [11, 28]: 0
Plant response rating, Lambsquarters [11, 29]: 20
Plant response rating, Cocklebur [12, 28]: 0
Plant response rating, Cocklebur [12, 29]: 20
Plant response rating, Crabgrass [13, 30]: 90
Plant response rating, Crabgrass [13, 31]: 60
Plant response rating, Velvetleaf [14, 30]: 0
Plant response rating, Velvetleaf [14, 31]: 0
Plant response rating, Barnyardgrass [15, 30]: 100
Plant response rating, Barnyardgrass [15, 31]: 20
Plant response rating, Morningglory [16, 30]: 0
Plant response rating, Morningglory [16, 31]: 0
Plant response rating, Corn (corn (Zea mays) [17]; [30]): 0
Plant response rating, Corn (corn (Zea mays) [17]; [31]): 0
Plant response rating, Foxtail, Giant [18, 30]: 0
Plant response rating, Foxtail, Giant [18, 31]: 0
Plant response rating, Surinam grass [19, 30]: 40
Plant response rating, Surinam grass [19, 31]: 0
Plant response rating, Pigweed [20, 30]: 100
Plant response rating, Pigweed [20, 31]: 90
Plant response rating, Lambsquarters [21, 30]: 100
Plant response rating, Lambsquarters [21, 31]: 90
Plant response rating, Cocklebur [22, 30]: 0
Plant response rating, Cocklebur [22, 31]: 0
Plant response rating, Rice (rice (Oryza saliva) [23]; [30]): 0
Plant response rating, Rice (rice (Oryza saliva) [23]; [31]): 0
Barnyardgrass plant response rating ([24]; Rate 250 g/ha): 0
Barnyardgrass plant response rating ([24]; Rate 500 g/ha): 20
Plant response rating, Barnyardgrass ([24]; Rate 62 g/ha): 0
Plant response rating, Barnyardgrass ([24]; Rate 125 g/ha): 0
Flatsedge plant response rating ([25]; Rate 250 g/ha): 80
Flatsedge plant response rating ([25]; Rate 500 g/ha): 80
Plant response rating, Flatsedge ([25]; Rate 62 g/ha): 70
Plant response rating, Flatsedge ([25]; Rate 125 g/ha): 70
Ducksalad plant response rating ([26]; Rate 250 g/ha): 0
Ducksalad plant response rating ([26]; Rate 500 g/ha): 30
Plant response rating, Ducksalad ([26]; Rate 62 g/ha): 0
Plant response rating, Ducksalad ([26]; Rate 125 g/ha): 0
Rice plant response rating (rice (Oryza saliva) [27]; Rate 250 g/ha): 0
Rice plant response rating (rice (Oryza saliva) [27]; Rate 500 g/ha): 30
Plant response rating, Rice (rice (Oryza saliva) [27]; Rate 62 g/ha): 0
Plant response rating, Rice (rice (Oryza saliva) [27]; Rate 125 g/ha): 0
